Laboratory results: ChEMBL document CHEMBL3885881, “DrugMatrix”

Species: Rattus norvegicus
Assay: DrugMatrix - Regimen: Daily Repeat
Assay type: toxicity, organism-based, Sprague-Dawley
Parameters: regimen Daily Repeat, gender Male, age 6-8 weeks
Conditions: in vivo, po, route oral GAVAGE, […]; for ABSOLUTE BASOPHIL / ABSOLUTE EOSINOPHIL / ABSOLUTE LYMPHOCYTE / ABSOLUTE MONOCYTE / ABSOLUTE SEGMENTED NEUTROPHIL / BASOPHIL / EOSINOPHIL / ERYTHROCYTE COUNT / HEMATOCRIT / HEMOGLOBIN / LEUKOCYTE COUNT / LYMPHOCYTE / MEAN CORPUSCULAR HEMOGLOBIN / MEAN CORPUSCULAR HEMOGLOBIN CONCENTRATION / MEAN CORPUSCULAR VOLUME / MONOCYTE / NEUTROPHIL / NUCLEATED RED BLOOD CELLS / PLATELET COUNT: tissue Blood; for ALANINE AMINOTRANSFERASE / ALBUMIN / ALKALINE PHOSPHATASE / ASPARTATE AMINOTRANSFERASE / BLOOD UREA NITROGEN / CARBON DIOXIDE / CHLORIDE / CHOLESTEROL / CREATINE PHOSPHOKINASE / CREATININE / GLUCOSE / LACTATE DEHYDROGENASE / LIPASE / PHOSPHORUS / POTASSIUM / SODIUM / TOTAL BILIRUBIN / TOTAL PROTEIN / URIC ACID: tissue Plasma
[1] = 40 mg/kg, 72 h, dose level Low, time 3 day
[2] = 40 mg/kg, 120 h, dose level Low, time 5 day
[3] = 444 mg/kg, 72 h, dose level High, time 3 day
[4] = 444 mg/kg, 120 h, dose level High, time 5 day

Compound: COC(=O)c1ccccc1O [METHYL SALICYLATE]
- ABSOLUTE BASOPHIL [1]: 0 CELLS/uL
- ABSOLUTE EOSINOPHIL [1]: 96.67 CELLS/uL
- ABSOLUTE LYMPHOCYTE [1]: 12979.67 CELLS/uL
- ABSOLUTE MONOCYTE [1]: 290.67 CELLS/uL
- ABSOLUTE SEGMENTED NEUTROPHIL [1]: 1366.33 CELLS/uL
- BASOPHIL [1]: 0%
- EOSINOPHIL [1]: 0.67%
- ERYTHROCYTE COUNT [1]: 5.47 x10E6/uL
- HEMATOCRIT [1]: 34.27%
- HEMOGLOBIN [1]: 13.3 G/DL
- LEUKOCYTE COUNT [1]: 14.73 x10E3/uL
- LYMPHOCYTE [1]: 88%
- MEAN CORPUSCULAR HEMOGLOBIN [1]: 24.33 pg
- MEAN CORPUSCULAR HEMOGLOBIN CONCENTRATION [1]: 38.83 G/DL
- MEAN CORPUSCULAR VOLUME [1]: 62.67 fL
- MONOCYTE [1]: 2%
- NEUTROPHIL [1]: 9.33%
- NUCLEATED RED BLOOD CELLS [1]: 0 /100WBC
- PLATELET COUNT [1]: 1233.67 x10E3/uL
- ALANINE AMINOTRANSFERASE [1]: 69.33 u/L
- ALBUMIN [1]: 3.93 G/DL
- ALKALINE PHOSPHATASE [1]: 411 u/L
- ASPARTATE AMINOTRANSFERASE [1]: 90 u/L
- BLOOD UREA NITROGEN [1]: 10.67 mg/dL
- CARBON DIOXIDE [1]: 25 mmol/L
- CHLORIDE [1]: 101 MEQ/L
- CHOLESTEROL [1]: 68 mg/dL
- CREATINE PHOSPHOKINASE [1]: 276 u/L
- CREATININE [1]: 0.17 mg/dL
- GLUCOSE [1]: 149.67 mg/dL
- LACTATE DEHYDROGENASE [1]: 146.67 u/L
- LIPASE [1]: 12 u/L
- PHOSPHORUS [1]: 11.03 mg/dL
- POTASSIUM [1]: 6.55 MEQ/L
- SODIUM [1]: 142.03 MEQ/L
- TOTAL BILIRUBIN [1]: 0.2 mg/dL
- TOTAL PROTEIN [1]: 5.6 G/DL
- URIC ACID [1]: 1.37 mg/dL
- ABSOLUTE BASOPHIL [2]: 0 CELLS/uL
- ABSOLUTE EOSINOPHIL [2]: 46 CELLS/uL
- ABSOLUTE LYMPHOCYTE [2]: 12546.67 CELLS/uL
- ABSOLUTE MONOCYTE [2]: 258.67 CELLS/uL
- ABSOLUTE SEGMENTED NEUTROPHIL [2]: 1848.67 CELLS/uL
- BASOPHIL [2]: 0%
- EOSINOPHIL [2]: 0.33%
- ERYTHROCYTE COUNT [2]: 5.18 x10E6/uL
- HEMATOCRIT [2]: 34.3%
- HEMOGLOBIN [2]: 13.77 G/DL
- LEUKOCYTE COUNT [2]: 14.7 x10E3/uL
- LYMPHOCYTE [2]: 85.67%
- MEAN CORPUSCULAR HEMOGLOBIN [2]: 26.7 pg
- MEAN CORPUSCULAR HEMOGLOBIN CONCENTRATION [2]: 40.13 G/DL
- MEAN CORPUSCULAR VOLUME [2]: 66.53 fL
- MONOCYTE [2]: 1.67%
- NEUTROPHIL [2]: 12.33%
- NUCLEATED RED BLOOD CELLS [2]: 0 /100WBC
- PLATELET COUNT [2]: 1368.67 x10E3/uL
- ALANINE AMINOTRANSFERASE [2]: 59 u/L
- ALBUMIN [2]: 4.17 G/DL
- ALKALINE PHOSPHATASE [2]: 468.33 u/L
- ASPARTATE AMINOTRANSFERASE [2]: 97.67 u/L
- BLOOD UREA NITROGEN [2]: 11 mg/dL
- CARBON DIOXIDE [2]: 34.67 mmol/L
- CHLORIDE [2]: 100.67 MEQ/L
- CHOLESTEROL [2]: 60.33 mg/dL
- CREATINE PHOSPHOKINASE [2]: 364.67 u/L
- CREATININE [2]: 0.16 mg/dL
- GLUCOSE [2]: 144 mg/dL
- LACTATE DEHYDROGENASE [2]: 490.67 u/L
- LIPASE [2]: 11 u/L
- PHOSPHORUS [2]: 10.47 mg/dL
- POTASSIUM [2]: 6.4 MEQ/L
- SODIUM [2]: 143.33 MEQ/L
- TOTAL BILIRUBIN [2]: 0.2 mg/dL
- TOTAL PROTEIN [2]: 5.73 G/DL
- URIC ACID [2]: 1.43 mg/dL
- ABSOLUTE BASOPHIL [3]: 0 CELLS/uL
- ABSOLUTE EOSINOPHIL [3]: 0 CELLS/uL
- ABSOLUTE LYMPHOCYTE [3]: 15083 CELLS/uL
- ABSOLUTE MONOCYTE [3]: 294 CELLS/uL
- ABSOLUTE SEGMENTED NEUTROPHIL [3]: 1723 CELLS/uL
- BASOPHIL [3]: 0%
- EOSINOPHIL [3]: 0%
- ERYTHROCYTE COUNT [3]: 6.27 x10E6/uL
- HEMATOCRIT [3]: 39.33%
- HEMOGLOBIN [3]: 15.27 G/DL
- LEUKOCYTE COUNT [3]: 17.1 x10E3/uL
- LYMPHOCYTE [3]: 88.33%
- MEAN CORPUSCULAR HEMOGLOBIN [3]: 24.37 pg
- MEAN CORPUSCULAR HEMOGLOBIN CONCENTRATION [3]: 38.83 G/DL
- MEAN CORPUSCULAR VOLUME [3]: 62.8 fL
- MONOCYTE [3]: 1.67%
- NEUTROPHIL [3]: 10%
- NUCLEATED RED BLOOD CELLS [3]: 0 /100WBC
- PLATELET COUNT [3]: 1017 x10E3/uL
- ALANINE AMINOTRANSFERASE [3]: 109 u/L
- ALBUMIN [3]: 4.4 G/DL
- ALKALINE PHOSPHATASE [3]: 443.33 u/L
- ASPARTATE AMINOTRANSFERASE [3]: 121 u/L
- BLOOD UREA NITROGEN [3]: 11.33 mg/dL
- CARBON DIOXIDE [3]: 27.67 mmol/L
- CHLORIDE [3]: 99.33 MEQ/L
- CHOLESTEROL [3]: 62.33 mg/dL
- CREATINE PHOSPHOKINASE [3]: 782 u/L
- CREATININE [3]: 0.19 mg/dL
- GLUCOSE [3]: 148.33 mg/dL
- LACTATE DEHYDROGENASE [3]: 151.33 u/L
- LIPASE [3]: 11.67 u/L
- PHOSPHORUS [3]: 13.93 mg/dL
- POTASSIUM [3]: 5.57 MEQ/L
- SODIUM [3]: 143.77 MEQ/L
- TOTAL BILIRUBIN [3]: 0.2 mg/dL
- TOTAL PROTEIN [3]: 5.73 G/DL
- URIC ACID [3]: 1 mg/dL
- ABSOLUTE BASOPHIL [4]: 0 CELLS/uL
- ABSOLUTE EOSINOPHIL [4]: 54.67 CELLS/uL
- ABSOLUTE LYMPHOCYTE [4]: 13302.33 CELLS/uL
- ABSOLUTE MONOCYTE [4]: 273 CELLS/uL
- ABSOLUTE SEGMENTED NEUTROPHIL [4]: 1603.33 CELLS/uL
- BASOPHIL [4]: 0%
- EOSINOPHIL [4]: 0.33%
- ERYTHROCYTE COUNT [4]: 6.16 x10E6/uL
- HEMATOCRIT [4]: 38.17%
- HEMOGLOBIN [4]: 14.63 G/DL
- LEUKOCYTE COUNT [4]: 15.23 x10E3/uL
- LYMPHOCYTE [4]: 87.67%
- MEAN CORPUSCULAR HEMOGLOBIN [4]: 23.73 pg
- MEAN CORPUSCULAR HEMOGLOBIN CONCENTRATION [4]: 38.4 G/DL
- MEAN CORPUSCULAR VOLUME [4]: 61.93 fL
- MONOCYTE [4]: 2%
- NEUTROPHIL [4]: 10%
- NUCLEATED RED BLOOD CELLS [4]: 0.33 /100WBC
- PLATELET COUNT [4]: 914.67 x10E3/uL
- ALANINE AMINOTRANSFERASE [4]: 125.67 u/L
- ALBUMIN [4]: 4.53 G/DL
- ALKALINE PHOSPHATASE [4]: 515 u/L
- ASPARTATE AMINOTRANSFERASE [4]: 127.67 u/L
- BLOOD UREA NITROGEN [4]: 18.67 mg/dL
- CARBON DIOXIDE [4]: 29 mmol/L
- CHLORIDE [4]: 103 MEQ/L
- CHOLESTEROL [4]: 65.33 mg/dL
- CREATINE PHOSPHOKINASE [4]: 548 u/L
- CREATININE [4]: 0.23 mg/dL
- GLUCOSE [4]: 140.67 mg/dL
- LACTATE DEHYDROGENASE [4]: 324.33 u/L
- LIPASE [4]: 11 u/L
- PHOSPHORUS [4]: 13.1 mg/dL
- POTASSIUM [4]: 5.71 MEQ/L
- SODIUM [4]: 146.3 MEQ/L
- TOTAL BILIRUBIN [4]: 0.27 mg/dL
- TOTAL PROTEIN [4]: 5.97 G/DL
- URIC ACID [4]: 0.9 mg/dL
